According to PubChem BioAssay AID192 (DTP/NCI, 2004):
“And” between values parts separate entries of the source, which are not always exact repeats. Equal entries are not always repeated. Toxic doses and inconclusive results are not listed. The calls were made as follows: active = survival T/C of 150% or more; inactive = T/C below 125% in these data.

Test system: BDF1 mice, B16 melanoma ip, median survival T/C
Assay: NCI In Vivo Anticancer Drug Screen. Data for tumor model B16 Melanoma (intraperitoneal) in B6D2F1 (BDF1) mice
Settings: endpoint: median survival time, higher = longer survival
How it was run: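 Tumor-bearing mice received test compound or vehicle. Survival or tumor size was then measured in both groups. The treated-group figure was divided by the control-group figure.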

[1] = dose: 100.0 mg/kg/injection, schedule: Q01DX009 (ip), vehicle: Klucel (hydroxypropylcellulose) (HPC)
[2] = dose: 200.0 mg/kg/injection, schedule: Q01DX009 (ip), vehicle: Klucel (hydroxypropylcellulose) (HPC)
[3] = dose: 400.0 mg/kg/injection, schedule: Q01DX009 (ip), vehicle: Klucel (hydroxypropylcellulose) (HPC)
[4] = dose: 25.0 mg/kg/injection, schedule: Q04DX003 (ip), vehicle: Klucel (hydroxypropylcellulose) (HPC)
[5] = dose: 50.0 mg/kg/injection, schedule: Q04DX003 (ip), vehicle: Klucel (hydroxypropylcellulose) (HPC)
[6] = dose: 100.0 mg/kg/injection, schedule: Q04DX003 (ip), vehicle: Klucel (hydroxypropylcellulose) (HPC)
[7] = dose: 12.5 mg/kg/injection, schedule: Q01DX009 (ip), vehicle: Klucel (hydroxypropylcellulose) (HPC)
[8] = dose: 25.0 mg/kg/injection, schedule: Q01DX009 (ip), vehicle: Klucel (hydroxypropylcellulose) (HPC)
[9] = dose: 1.25 mg/kg/injection, schedule: Q01DX009 (ip), vehicle: saline
[10] = dose: 2.5 mg/kg/injection, schedule: Q01DX009 (ip), vehicle: saline
[11] = dose: 25.0 mg/kg/injection, schedule: Q01DX009 (ip), vehicle: saline with Tween-80
[12] = dose: 50.0 mg/kg/injection, schedule: Q01DX009 (ip), vehicle: saline with Tween-80
[13] = dose: 100.0 mg/kg/injection, schedule: Q01DX009 (ip), vehicle: saline with Tween-80
[14] = dose: 12.5 mg/kg/injection, schedule: Q01DX009 (ip), vehicle: saline
[15] = dose: 25.0 mg/kg/injection, schedule: Q01DX009 (ip), vehicle: saline
[16] = dose: 37.5 mg/kg/injection, schedule: Q01DX009 (ip), vehicle: Klucel (hydroxypropylcellulose) (HPC)
[17] = dose: 200.0 mg/kg/injection, schedule: Q01DX009 (ip), vehicle: saline with Tween-80
[18] = dose: 400.0 mg/kg/injection, schedule: Q01DX009 (ip), vehicle: saline with Tween-80
[19] = dose: 200.0 mg/kg/injection, schedule: Q04DX003 (ip), vehicle: Klucel (hydroxypropylcellulose) (HPC)

Measured: T/C

c1ccc([P+](C[P+](c2ccccc2)(c2ccccc2)c2ccccc2)(c2ccccc2)c2ccccc2)cc1
inactive: dose: 0.75 mg/kg/injection, schedule: Q01DX009 (ip), vehicle: saline 87 % of control | dose: 1.5 mg/kg/injection, schedule: Q01DX009 (ip), vehicle: saline 93 % of control

CC(C)CCC(C)C1CCC2C3CC([N+](=O)[O-])=C4CC(OC(=O)c5ccccc5)CCC4(C)C3CCC12C (stereo unspecified)
inactive: [1] 105 % of control | [2] 110 % of control | [3] 105 % of control

CCOC(=O)/C(=C\c1ccccc1)P(=O)(OCC)c1ccccc1 (stereo unspecified)
inactive: [4] 93 % of control | [5] 95 % of control | [6] 94 % of control

O=COCCc1ccccc1
inactive: [1] 113 % of control | [2] 103 % of control | [3] 96 % of control

COc1ccccc1N1C(=O)CSC1=S
inactive: [7] 95 % of control | [8] 105 % of control | dose: 50.0 mg/kg/injection, schedule: Q01DX009 (ip), vehicle: Klucel (hydroxypropylcellulose) (HPC) 87 % of control | [1] 105 % of control

CCC(CC)COC(=O)c1ccccc1C(=O)OCC(CC)CC
inactive: dose: 12.5 mg/kg/injection, schedule: Q01DX009 (ip), vehicle: saline with Tween-80 87 % of control

O=C(NC(Cc1ccccc1)C(=O)CCl)OCc1ccccc1 (stereo unspecified)
inactive: [7] 100 % of control | [8] 97 % of control

FC(F)(F)S.[Hg]
inactive: [9] 104 % of control | [10] 100 % of control | dose: 5.0 mg/kg/injection, schedule: Q01DX009 (ip), vehicle: saline 102 % of control

NCc1c(Cl)c(Cl)c(CN)c(Cl)c1Cl
inactive: [11] 100 % of control | [12] 102 % of control | [13] 100 % of control

C[C@@H]1O[C@@H](O[C@H]2CC[C@]3(C=O)[C@H]4CC[C@]5(C)[C@@H](c6ccc(=O)oc6)CC[C@]5(O)[C@@H]4CC[C@]3(O)C2)[C@H](O)[C@H](O)[C@H]1O[C@@H]1O[C@H](CO)[C@@H](O)[C@H](O)[C@H]1O
inactive: dose: 0.63 mg/kg/injection, schedule: Q01DX009 (ip), vehicle: saline 102 % of control | [9] 92 % of control | [10] 90 % of control

CC1(C)N=C(N)N=C(N)N1c1ccc(CNC(=O)Nc2ccc(S(=O)(=O)F)cc2)cc1
inactive: dose: 50.0 mg/kg/injection, schedule: Q04DX003 (ip), vehicle: saline 112 % of control

COC(=O)C1(N)CCCC1
inactive: dose: 6.25 mg/kg/injection, schedule: Q01DX009 (ip), vehicle: saline 105 % of control and 110 % of control | [14] 108 % of control and 109 % of control and 122 % of control | [15] 121 % of control and 123 % of control

CCC(C)Sc1nc(N)nc2c1ncn2C1OC(CO)C(O)C1O (stereo unspecified)
inactive: [16] 113 % of control | dose: 75.0 mg/kg/injection, schedule: Q01DX009 (ip), vehicle: Klucel (hydroxypropylcellulose) (HPC) 99 % of control | dose: 150.0 mg/kg/injection, schedule: Q01DX009 (ip), vehicle: Klucel (hydroxypropylcellulose) (HPC) 89 % of control

COc1cc(OC)c(/C=C/c2c3ccccc3cc[n+]2C)c(OC)c1
inactive: dose: 0.78 mg/kg/injection, schedule: Q01DX009 (ip), vehicle: saline with Tween-80 97 % of control | dose: 1.56 mg/kg/injection, schedule: Q01DX009 (ip), vehicle: saline with Tween-80 102 % of control

O=C(O)C1OC1c1ccccc1 (stereo unspecified)
inactive: [13] 97 % of control | [17] 102 % of control | [18] 100 % of control

NC(=O)NC1CCCC1
inactive: [13] 106 % of control | [17] 112 % of control | [18] 102 % of control

C#CCC1(OC(N)=O)CCCCC1
inactive: dose: 6.25 mg/kg/injection, schedule: Q04DX003 (ip), vehicle: Klucel (hydroxypropylcellulose) (HPC) 99 % of control | [14] 104 % of control | dose: 12.5 mg/kg/injection, schedule: Q04DX003 (ip), vehicle: Klucel (hydroxypropylcellulose) (HPC) 97 % of control | [15] 100 % of control | [4] 97 % of control | dose: 50.0 mg/kg/injection, schedule: Q01DX009 (ip), vehicle: saline 89 % of control | [5] 98 % of control | dose: 100.0 mg/kg/injection, schedule: Q01DX009 (ip), vehicle: saline 87 % of control | [6] 103 % of control | [19] 95 % of control

CN(C)N=Nc1c(Cl)cccc1Cl
inactive: dose: 18.75 mg/kg/injection, schedule: Q01DX009 (ip), vehicle: Klucel (hydroxypropylcellulose) (HPC) 101 % of control | [16] 105 % of control

Cc1ccc2no[n+]([O-])c2c1[N+](=O)[O-]
inactive: [11] 93 % of control | [12] 97 % of control | [13] 98 % of control

CSc1ncnc2c1ncn2-n1cccc1
inactive: [1] 88 % of control | [6] 100 % of control | [2] 88 % of control | [19] 100 % of control | [3] 113 % of control | dose: 400.0 mg/kg/injection, schedule: Q04DX003 (ip), vehicle: Klucel (hydroxypropylcellulose) (HPC) 100 % of control

Cc1ccc(NC(=O)c2ccc(Cl)cc2)c(Br)c1
inactive: dose: 100.0 mg/kg/injection, schedule: Q04DX003 (ip), vehicle: saline with Tween-80 105 % of control | dose: 200.0 mg/kg/injection, schedule: Q04DX003 (ip), vehicle: saline with Tween-80 97 % of control | dose: 400.0 mg/kg/injection, schedule: Q04DX003 (ip), vehicle: saline with Tween-80 88 % of control
